In patent US8586611B2 (priority 2005, dated 2013):

How the values were obtained:
Format in all cases: in vivo
Phytophthora infestans [1] = test: whole plant or invertebrate; settings: tomato late blight, spray the day before inoculation
Phytophthora infestans [2] = test: whole plant or invertebrate; settings: tomato late blight, spray 17 h after inoculation
[3] = system: Erysiphe graminis f. sp. tritici; test: Test E: wheat powdery mildew, spray the day before inoculation (disease rating, 100 = 100% disease control); settings: spray the day before inoculation
Outline: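 Wheat seedlings sprayed to run-off with compound suspended in acetone/water 50/50 with 250 ppm Trem 014 (200 ppm equivalent to 500 g/ha); inoculated next day with Erysiphe graminis f. sp. tritici spore dust. Kept 7 days at 20° C, then rated 0–100% disease control versus controls.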

Plasmopara viticola = test: Test B: grape downy mildew, spray 24 h after inoculation (disease rating, 100 = 100% disease control); settings: spray 24 h after inoculation
Outline: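 Grape seedlings were inoculated with Plasmopara viticola and held 24 h saturated at 20 °C, then sprayed to run-off with compound suspension (acetone/water with 250 ppm Trem 014; 200 ppm ≈ 500 g/ha). After 5 days at 20 °C and 24 h saturation, disease was rated from 0 to 100% control versus untreated.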

[4] = compounds without asterisk (not 40 or 10 ppm)

SMILES | Test C disease rating (100 = 100% disease control, 0 = no disease control) (Phytophthora infestans [1]; [4]) [%] | Test D disease rating (100 = 100% disease control, 0 = no disease control) (Phytophthora infestans [2]; [4]) [%] | Test E disease rating (100 = 100% disease control, 0 = no disease control) [3, 4] [%] | Test B disease rating (100 = 100% disease control, 0 = no disease control) (Plasmopara viticola; [4]) [%] | also measured
CCC1C=Cc2ccccc2C1N(C)C(=O)c1csc(C2CCN(C(=O)Cn3nc(C(F)(F)F)cc3C)CC2)n1 (stereo not drawn) [compound 228] | 100 | 99 | 0 | 88 | –
COC(=O)C1CC(N(C)C(=O)c2csc(C3CCN(C(=O)Cn4nc(C(F)(F)F)cc4C)CC3)n2)c2ccccc21 (stereo not drawn) [compound 229] | 100 | 90 | 0 | 97 | –
Cc1cc(C(F)(F)F)nn1CC(=O)N1CCC(c2nc(C(=O)N(C)C3c4ccccc4C=CC3C)cs2)CC1 (stereo not drawn) [compound 230] | 100 | 94 | 0 | 87 | –
Cc1cc(C(F)(F)F)nn1CC(=O)N1CCC(c2nc(C(=O)N(C)C3CC(CO)c4ccccc43)cs2)CC1 (stereo not drawn) [compound 235] | 100 | 99 | 0 | 94 | –
Cc1cc(C(F)(F)F)nn1CC(=O)N1CCC(c2nc(C(=O)N(C)C(C)(C)c3ccccc3)cs2)CC1 [compound 237] | 99 | 99 | 62 | 81 | –
CN(C(=O)c1csc(C2CCN(C(=O)Cn3nc(C(F)(F)F)cc3C(C)(C)C)CC2)n1)[C@@H]1CCCc2ccccc21 [compound 239] | – | – | – | – | Test C disease rating (100 = 100% disease control, 0 = no disease control) (Phytophthora infestans [1]; tested at 40 ppm): 57%; Test D disease rating (100 = 100% disease control, 0 = no disease control) (Phytophthora infestans [2]; tested at 40 ppm): 0%; Test E disease rating (100 = 100% disease control, 0 = no disease control) ([3]; tested at 40 ppm): 0%; Test B disease rating (100 = 100% disease control, 0 = no disease control) (Plasmopara viticola; tested at 40 ppm): 63%
CC(C)c1cc(C(F)(F)F)nn1CC(=O)N1CCC(c2nc(C(=O)N(C)[C@@H]3CCCc4ccccc43)cs2)CC1 [compound 240] | – | – | – | – | Test C disease rating (100 = 100% disease control, 0 = no disease control) (Phytophthora infestans [1]; tested at 10 ppm): 100%; Test D disease rating (100 = 100% disease control, 0 = no disease control) (Phytophthora infestans [2]; tested at 10 ppm): 99%; Test E disease rating (100 = 100% disease control, 0 = no disease control) ([3]; tested at 10 ppm): 0%; Test B disease rating (100 = 100% disease control, 0 = no disease control) (Plasmopara viticola; tested at 10 ppm): 99%
Cc1cc(C(F)(F)F)nn1CC(=O)N1CCCN(c2nc(C(=O)N(C)[C@@H]3CCCc4ccccc43)cs2)CC1 [compound 241] | 99 | 68 | 47 | 17 | –
Cc1cc(C(F)(F)F)nn1CC(=O)N1CCCN(c2nc(C(=O)N(C)[C@@H]3CCCc4ccccc43)cs2)CC1.Cl [compound 242] | 100 | 73 | 0 | 16 | –
Cc1ccccc1C(C)N(C)C(=O)c1csc(C2CCN(C(=O)Cn3nc(C(F)(F)F)cc3C)CC2)n1 (stereo not drawn) [compound 243] | – | – | – | – | Test C disease rating (100 = 100% disease control, 0 = no disease control) (Phytophthora infestans [1]; tested at 40 ppm): 86%; Test D disease rating (100 = 100% disease control, 0 = no disease control) (Phytophthora infestans [2]; tested at 40 ppm): 82%; Test E disease rating (100 = 100% disease control, 0 = no disease control) ([3]; tested at 40 ppm): 0%; Test B disease rating (100 = 100% disease control, 0 = no disease control) (Plasmopara viticola; tested at 40 ppm): 91%
COC(=O)[C@H](c1ccccc1)N(C)C(=O)c1csc(C2CCN(C(=O)Cn3nc(C(F)(F)F)cc3C)CC2)n1 [compound 244] | 99 | 93 | 0 | 100 | –
Cc1cc(C(F)(F)F)nn1CC(=O)N1CCC(c2nc(C(=O)N(C)[C@H](C(=O)O)c3ccccc3)cs2)CC1 [compound 245] | 47 | 0 | 0 | 0 | –
